Legend:
[1] = Anti-myelofibrosis activity against mouse BAF3(transformed) cells harboring with JAK2 V617F mutant allografted in NOD/SCID mouse assessed as reduction in spleen weight at 60 mg/kg, po qd for 20 days measured on day 25 relative to control; type: functional
[2] = Anti-myelofibrosis activity against mouse BAF3(transformed) cells harboring with JAK2 V617F mutant allografted in NOD/SCID mouse assessed as reduction in liver weight at 60 mg/kg, po qd for 20 days measured on day 25 relative to control; type: functional
[3] = tested on: SET-2; assay: Antiproliferative activity against human SET2 cells overexpressing JAK2 […] mutant assessed as reduction in cell growth after 72 hrs by MTT assay; type: functional, cell-based; conditions: SET-2, 72 h
[4] = Terminal elimination half life in Sprague-Dawley rat at 5 mg/kg, po measured up to 24 hrs by LC/MS/MS analysis; type: ADME, organism-based; conditions: in vivo; for half-life: Sprague-Dawley, read-out: beta t1/2 (converted)
[5] = species: Homo sapiens; assay: Selectivity ratio of IC50 for inhibition of human JAK3 (781 to end residues) to inhibition of human JAK2 (808 to end residues)
[6] = target: T1, Tyrosine-protein kinase JAK3 (Homo sapiens, UniProt P52333); assay: Inhibition of human JAK3 (781 to end residues) using GGEEEEYFELVKK as substrate after 40 mins in presence of [gamma33P]-ATP by scintillation counting based radiometric assay
T1 sequence (P52333 whole entry): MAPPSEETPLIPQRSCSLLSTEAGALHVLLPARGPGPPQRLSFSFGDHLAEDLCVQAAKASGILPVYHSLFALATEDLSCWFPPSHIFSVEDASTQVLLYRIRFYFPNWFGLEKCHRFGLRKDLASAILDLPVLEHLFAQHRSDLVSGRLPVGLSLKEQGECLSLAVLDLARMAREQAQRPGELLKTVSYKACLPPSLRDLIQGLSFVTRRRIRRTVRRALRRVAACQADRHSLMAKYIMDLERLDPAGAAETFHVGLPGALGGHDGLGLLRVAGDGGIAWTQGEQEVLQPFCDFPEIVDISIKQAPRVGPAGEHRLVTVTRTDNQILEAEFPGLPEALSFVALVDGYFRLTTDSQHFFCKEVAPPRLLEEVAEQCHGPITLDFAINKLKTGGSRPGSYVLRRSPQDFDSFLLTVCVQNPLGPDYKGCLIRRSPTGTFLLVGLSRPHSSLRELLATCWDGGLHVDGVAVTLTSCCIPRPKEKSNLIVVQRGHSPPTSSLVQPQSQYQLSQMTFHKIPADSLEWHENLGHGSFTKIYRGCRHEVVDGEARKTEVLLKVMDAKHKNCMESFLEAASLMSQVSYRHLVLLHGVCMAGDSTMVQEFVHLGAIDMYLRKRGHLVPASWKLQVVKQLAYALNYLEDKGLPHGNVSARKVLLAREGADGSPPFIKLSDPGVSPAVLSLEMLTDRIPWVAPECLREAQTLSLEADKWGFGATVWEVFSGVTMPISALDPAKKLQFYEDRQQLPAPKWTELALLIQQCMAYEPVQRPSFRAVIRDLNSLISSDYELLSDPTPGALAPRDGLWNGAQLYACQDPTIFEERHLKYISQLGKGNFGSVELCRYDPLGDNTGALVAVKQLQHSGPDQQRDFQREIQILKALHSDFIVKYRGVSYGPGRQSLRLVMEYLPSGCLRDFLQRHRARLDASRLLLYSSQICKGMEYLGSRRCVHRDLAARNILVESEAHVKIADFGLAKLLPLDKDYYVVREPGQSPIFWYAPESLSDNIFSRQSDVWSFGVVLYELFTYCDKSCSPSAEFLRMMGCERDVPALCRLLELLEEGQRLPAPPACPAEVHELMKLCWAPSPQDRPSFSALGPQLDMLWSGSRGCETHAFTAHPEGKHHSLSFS

[7] = target: T2, Receptor-type tyrosine-protein kinase FLT3 (Homo sapiens, UniProt P36888); assay: Inhibition of human FLT3 (564 to end residues) using EAIYAAPFAKKK as substrate after 40 mins in presence of [gamma33P]-ATP by scintillation counting based radiometric assay
T2 sequence (P36888 whole entry): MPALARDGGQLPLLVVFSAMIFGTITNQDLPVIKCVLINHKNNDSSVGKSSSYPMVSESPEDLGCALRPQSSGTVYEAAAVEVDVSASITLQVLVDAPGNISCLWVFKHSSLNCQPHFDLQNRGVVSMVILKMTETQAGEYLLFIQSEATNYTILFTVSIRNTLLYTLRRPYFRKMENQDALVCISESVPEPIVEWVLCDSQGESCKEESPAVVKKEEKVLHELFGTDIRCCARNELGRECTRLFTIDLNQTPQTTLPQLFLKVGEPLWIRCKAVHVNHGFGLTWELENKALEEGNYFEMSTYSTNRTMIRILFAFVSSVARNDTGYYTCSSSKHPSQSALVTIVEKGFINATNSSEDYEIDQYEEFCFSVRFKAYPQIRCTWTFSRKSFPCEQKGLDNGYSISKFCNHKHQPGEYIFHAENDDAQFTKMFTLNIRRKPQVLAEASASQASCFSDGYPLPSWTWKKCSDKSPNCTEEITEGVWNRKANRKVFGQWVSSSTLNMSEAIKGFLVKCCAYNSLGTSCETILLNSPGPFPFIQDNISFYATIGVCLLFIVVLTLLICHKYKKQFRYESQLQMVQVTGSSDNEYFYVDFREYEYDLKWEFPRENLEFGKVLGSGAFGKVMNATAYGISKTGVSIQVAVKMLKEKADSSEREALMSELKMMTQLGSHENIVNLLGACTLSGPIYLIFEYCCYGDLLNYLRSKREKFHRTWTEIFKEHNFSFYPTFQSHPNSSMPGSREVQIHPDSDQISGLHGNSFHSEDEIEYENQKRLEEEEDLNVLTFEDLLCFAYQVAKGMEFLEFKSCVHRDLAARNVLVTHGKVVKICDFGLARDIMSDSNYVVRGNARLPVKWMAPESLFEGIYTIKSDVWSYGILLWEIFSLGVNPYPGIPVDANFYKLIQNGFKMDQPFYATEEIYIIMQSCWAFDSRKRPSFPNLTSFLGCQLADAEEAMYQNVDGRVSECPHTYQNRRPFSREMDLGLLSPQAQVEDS

[8] = tested on: MV4-11; assay: Antiproliferative activity against FLT3-ITD-positive human MV4-11 cells assessed as reduction in cell growth after 72 hrs by MTT assay; type: functional, cell-based; conditions: MV4-11, 72 h
[9] = target: T3, Tyrosine-protein kinase JAK2 (Homo sapiens, UniProt O60674); assay: Inhibition of human JAK2 (808 to end residues) assessed as residual activity at 100 nM using KTFCGTPEYLAP as substrate after 40 mins in presence of [gamma33P]-ATP by scintillation counting based radiometric assay relative to control
[10] = target: Receptor-type tyrosine-protein kinase FLT3 (Homo sapiens) (UniProt P36888); assay: Inhibition of human FLT3 (564 to end residues) assessed as residual activity at 100 nM using EAIYAAPFAKKK as substrate after 40 mins in presence of [gamma33P]-ATP by scintillation counting based radiometric assay relative to control
[11] = Cmax in Sprague-Dawley rat at 5 mg/kg, po measured up to 24 hrs by LC/MS/MS analysis; type: ADME, organism-based; set-up: dose 5 mg/kg, route oral; conditions: in vivo
[12] = target: T4, Tyrosine-protein kinase JAK1 (Homo sapiens, UniProt P23458); assay: Inhibition of human JAK1 (866 to end residues) assessed as residual activity at 100 nM using GEEPLYWSFPAKK as substrate after 40 mins in presence of [gamma33P]-ATP by scintillation counting based radiometric assay relative to control
[13] = target: T5, Tyrosine-protein kinase JAK3 (Homo sapiens) (UniProt P52333); assay: Inhibition of human JAK3 (781 to end residues) assessed as residual activity at 100 nM using GGEEEEYFELVKK as substrate after 40 mins in presence of [gamma33P]-ATP by scintillation counting based radiometric assay relative to control
T5 sequence (whole entry): T1 sequence (P52333 whole entry)

[14] = AUC (0 to t) in Sprague-Dawley rat at 5 mg/kg, po measured up to 24 hrs by LC/MS/MS analysis; type: ADME, organism-based; set-up: dose 5 mg/kg, time < 24 hr, route oral; conditions: in vivo; for AUC(0-t) at 24 h: Sprague-Dawley
[15] = tested on: MOLM-13; assay: Antiproliferative activity against FLT3-ITD-positive human MOLM13 cells assessed as reduction in cell growth after 72 hrs by MTT assay; type: functional, cell-based; conditions: MOLM-13, 72 h
[16] = species: Homo sapiens; assay: Selectivity ratio of IC50 for inhibition of human JAK1 (866 to end residues) to inhibition of human JAK2 (808 to end residues)
[17] = target: Cytochrome P450 3A4 (Homo sapiens, UniProt P08684); assay: Inhibition of CYP3A4 (unknown origin); type: ADME
[18] = Oral bioavailability in Sprague-Dawley rat at 5 mg/kg measured up to 24 hrs by LC/MS/MS analysis; type: ADME, organism-based; conditions: in vivo
[19] = target: T3, Tyrosine-protein kinase JAK2; assay: Inhibition of human JAK2 (808 to end residues) using KTFCGTPEYLAP as substrate after 40 mins in presence of [gamma33P]-ATP by scintillation counting based radiometric assay
[20] = target: T4, Tyrosine-protein kinase JAK1; assay: Inhibition of human JAK1 (866 to end residues) GEEPLYWSFPAKK as substrate after 40 mins in presence of [gamma33P]-ATP by scintillation counting based radiometric assay
[21] = Tmax in Sprague-Dawley rat at 5 mg/kg, po measured up to 24 hrs by LC/MS/MS analysis; type: ADME, organism-based; conditions: in vivo

Chain of Cytochrome P450 3A4 (P08684 whole entry): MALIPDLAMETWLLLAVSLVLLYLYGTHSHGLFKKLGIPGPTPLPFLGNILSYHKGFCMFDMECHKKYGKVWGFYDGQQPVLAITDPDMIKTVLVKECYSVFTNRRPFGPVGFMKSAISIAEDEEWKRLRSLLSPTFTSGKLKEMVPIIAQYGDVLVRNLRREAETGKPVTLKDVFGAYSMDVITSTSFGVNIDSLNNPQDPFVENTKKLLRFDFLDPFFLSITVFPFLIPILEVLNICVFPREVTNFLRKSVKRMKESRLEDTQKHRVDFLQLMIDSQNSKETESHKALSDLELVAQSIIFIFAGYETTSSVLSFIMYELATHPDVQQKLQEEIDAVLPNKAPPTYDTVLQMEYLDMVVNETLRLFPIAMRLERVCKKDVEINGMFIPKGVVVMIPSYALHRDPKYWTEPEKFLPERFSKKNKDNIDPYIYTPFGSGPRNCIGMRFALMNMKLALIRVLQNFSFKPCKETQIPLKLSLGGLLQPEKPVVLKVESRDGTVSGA
T4 sequence (P23458 whole entry): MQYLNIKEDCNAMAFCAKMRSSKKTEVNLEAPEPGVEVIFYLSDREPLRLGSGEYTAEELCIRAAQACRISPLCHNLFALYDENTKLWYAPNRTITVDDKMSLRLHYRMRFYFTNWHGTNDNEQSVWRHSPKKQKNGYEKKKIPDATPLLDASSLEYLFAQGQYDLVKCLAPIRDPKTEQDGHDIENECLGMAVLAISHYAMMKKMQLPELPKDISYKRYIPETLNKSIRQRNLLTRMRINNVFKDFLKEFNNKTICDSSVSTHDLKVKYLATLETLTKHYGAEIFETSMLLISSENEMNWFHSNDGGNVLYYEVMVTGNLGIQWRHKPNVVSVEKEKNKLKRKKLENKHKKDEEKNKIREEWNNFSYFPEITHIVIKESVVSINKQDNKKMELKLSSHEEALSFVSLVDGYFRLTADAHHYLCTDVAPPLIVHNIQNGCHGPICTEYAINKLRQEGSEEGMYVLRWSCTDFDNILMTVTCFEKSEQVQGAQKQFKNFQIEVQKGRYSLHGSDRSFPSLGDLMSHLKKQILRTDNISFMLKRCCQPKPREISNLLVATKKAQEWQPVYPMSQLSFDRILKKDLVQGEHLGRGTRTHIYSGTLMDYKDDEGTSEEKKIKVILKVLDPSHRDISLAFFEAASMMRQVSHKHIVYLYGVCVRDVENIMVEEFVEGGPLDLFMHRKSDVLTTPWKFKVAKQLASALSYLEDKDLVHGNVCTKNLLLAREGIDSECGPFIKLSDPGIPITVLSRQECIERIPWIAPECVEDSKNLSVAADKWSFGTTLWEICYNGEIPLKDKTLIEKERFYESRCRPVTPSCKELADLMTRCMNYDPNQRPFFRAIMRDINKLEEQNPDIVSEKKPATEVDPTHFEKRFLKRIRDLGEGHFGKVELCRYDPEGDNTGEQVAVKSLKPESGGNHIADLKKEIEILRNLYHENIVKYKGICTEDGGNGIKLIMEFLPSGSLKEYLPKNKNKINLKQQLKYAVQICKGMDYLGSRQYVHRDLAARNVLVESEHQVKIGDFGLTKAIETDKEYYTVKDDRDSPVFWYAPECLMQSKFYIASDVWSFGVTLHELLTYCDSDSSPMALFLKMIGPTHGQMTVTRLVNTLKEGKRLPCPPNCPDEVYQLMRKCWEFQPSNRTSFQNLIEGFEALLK
T3 sequence (O60674 whole entry): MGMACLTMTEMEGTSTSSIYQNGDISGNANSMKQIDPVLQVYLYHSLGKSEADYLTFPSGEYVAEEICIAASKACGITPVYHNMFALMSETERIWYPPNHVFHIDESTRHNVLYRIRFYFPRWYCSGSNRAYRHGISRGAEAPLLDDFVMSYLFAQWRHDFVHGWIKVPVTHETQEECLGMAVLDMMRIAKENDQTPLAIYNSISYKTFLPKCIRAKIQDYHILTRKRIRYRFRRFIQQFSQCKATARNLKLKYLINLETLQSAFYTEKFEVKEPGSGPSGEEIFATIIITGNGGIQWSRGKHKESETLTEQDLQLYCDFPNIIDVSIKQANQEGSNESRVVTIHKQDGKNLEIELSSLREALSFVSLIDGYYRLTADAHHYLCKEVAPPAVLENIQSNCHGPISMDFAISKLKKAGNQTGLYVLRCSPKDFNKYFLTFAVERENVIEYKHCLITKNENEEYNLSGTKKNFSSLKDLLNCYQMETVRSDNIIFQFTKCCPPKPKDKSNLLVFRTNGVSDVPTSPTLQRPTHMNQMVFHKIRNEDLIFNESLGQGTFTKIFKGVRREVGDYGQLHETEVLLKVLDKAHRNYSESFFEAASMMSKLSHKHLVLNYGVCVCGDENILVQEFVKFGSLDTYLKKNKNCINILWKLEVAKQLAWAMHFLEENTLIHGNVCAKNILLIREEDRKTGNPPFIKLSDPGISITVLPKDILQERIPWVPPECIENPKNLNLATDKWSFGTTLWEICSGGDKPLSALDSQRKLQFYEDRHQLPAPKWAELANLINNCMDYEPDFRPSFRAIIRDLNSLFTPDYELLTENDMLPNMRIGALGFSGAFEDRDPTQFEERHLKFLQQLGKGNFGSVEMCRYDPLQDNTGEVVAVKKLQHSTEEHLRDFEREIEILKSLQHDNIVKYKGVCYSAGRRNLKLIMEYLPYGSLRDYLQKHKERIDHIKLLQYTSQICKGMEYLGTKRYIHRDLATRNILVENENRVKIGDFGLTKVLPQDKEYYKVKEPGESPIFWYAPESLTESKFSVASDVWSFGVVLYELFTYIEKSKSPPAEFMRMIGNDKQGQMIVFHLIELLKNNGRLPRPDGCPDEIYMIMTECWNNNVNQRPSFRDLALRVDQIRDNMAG

SMILES | Ratio IC50 [5] | IC50 [6] [nM] | IC50 [7] [nM] | IC50 [8] [nM] | Activity [9] [%] | Activity [10] [%] | Activity [12] [%] | Activity [13] [%] | IC50 [15] [nM] | Ratio IC50 [16] | IC50 [17] [nM] | bioavailability [18] [%] | IC50 [19] [nM] | IC50 [20] [nM] | other results
Cc1cnc(Nc2ccc(OCCN3CCCC3)cc2)nc1Nc1cccc(S(=O)(=O)NC(C)(C)C)c1 [FEDRATINIB] |  |  |  |  |  |  |  |  |  |  |  |  |  |  | inhibition in vivo at 60 mg/kg [1]: 24.7%; inhibition in vivo at 60 mg/kg [2]: 69.8%
C1=N/C2=N/c3ccc(OCCN4CCCC4)c(c3)COC/C=C/COCc3cccc(c3)C(=C1)N2 [PACRITINIB] |  |  |  |  |  |  |  |  |  |  |  |  |  |  | IC50 [3]: 916 nM
Cc1cnc(Nc2ccc(N3CCC(N(C)CCCO)CC3)c(F)c2)nc1-c1cnn(C(C)C)c1 | 23 | 23 | 9 | 8.3 | 5 | 7 | 22 | 31 | 82 | 47 | > 100000 | 43 | 1 | 47 | half-life [4]: 7.8 h; Cmax ([11]; Sprague-Dawley, read-out: Cmax): 88.9 ng/mL; AUC(0-t) at 24 h [14]: 1510 ng·h/mL; Tmax ([21]; Sprague-Dawley, read-out: Tmax): 4.1 h
CCCCN(C)C1CCN(c2ccc(Nc3ncc(C)c(-c4cnn(C(C)C)c4)n3)cc2F)CC1 | 19 | 39 | 15 | 6.4 | 4 | 7 | 27 | 33 | 24 | 38 | > 100000 | 31 | 2 | 76 | half-life [4]: 5.9 h; Cmax ([11]; Sprague-Dawley, read-out: Cmax): 56.5 ng/mL; AUC(0-t) at 24 h [14]: 305 ng·h/mL; Tmax ([21]; Sprague-Dawley, read-out: Tmax): 2.3 h
CCCCN1CCC(n2cc(-c3nc(Nc4ccc(N5CCN(C)CC5)c(F)c4)ncc3F)cn2)CC1 |  |  |  | 240 | 19 | 13 | 68 | 32 | 180 |  |  |  |  |  | 
Cc1cnc(Nc2ccc(N3CCC(N(C)CCN4CCN(C)CC4)CC3)c(F)c2)nc1-c1cnn(C(C)C)c1 | 34 | 103 | 11 | 4.3 | 5 | 5 | 24 | 44 | 50 | 40 | > 100000 | 45 | 3 | 121 | beta t1/2 ([4]; 24 h): 16 h; Cmax ([11]; 24 h): 2.3 ng/mL; AUCt ([14]; 24 h): 2265 ng·h/mL; Tmax ([21]; 24 h): 2.1 h
CCN1CCN(c2ccc(Nc3ncc(F)c(-c4cnn(C(C)C)c4)n3)c(F)c2)CC1 |  |  |  | 57 | 39 | 16 | 113 | 77 | 850 |  |  |  |  |  | 
Cc1cnc(Nc2ccc(N3CCC(N(C)C)CC3)c(F)c2)nc1-c1cnn(C(C)C)c1 |  |  |  | 5.4 | 5 | 8 | 17 | 23 | 100 |  |  |  |  |  | 
